In patent US9302999B2, “Substituted triazoles as herbicides” (E. I. DU PONT DE NEMOURS AND COMPANY, priority 2012, dated 2016):

Key:
Type in all cases: in vivo
[1] = system: blackgrass (Alopecurus myosuroides); test: Test D pre-/postemergence: blackgrass
Outline: (§1)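 Visual ratings from 0 (no effect) to 100 (complete control) were made 14–21 days after treatment, relative to controls. Applications were preemergence to seeds in silt loam, or postemergence to 2–18 cm (1–4 leaf) plants in peat-based medium. Compounds were formulated in a surfactant-containing non-phytotoxic solvent.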

[2] = system: ryegrass, Italian (Italian ryegrass, Lolium multiflorum); test: Test D pre-/postemergence: ryegrass, Italian
Outline: as §1

[3] = system: ryegrass, Italian (Italian ryegrass, Lolium multiflorum); test: Test F pre-/postemergence: ryegrass, Italian
Outline: (§2)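 Seeds were sown in silt loam soil and sprayed preemergence with test chemical in a non-phytotoxic solvent mixture containing surfactant; postemergence treatments went onto plants 2 to 18 cm tall (1- to 4-leaf stage) grown in peat moss/vermiculite medium. After 14 to 21 days in a greenhouse, injury was rated visually against controls, 0 (no effect) to 100 (complete control).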

[4] = system: mustard, wild (wild mustard, Sinapis arvensis); test: Test D pre-/postemergence: mustard, wild
Outline: as §1

[5] = system: bluegrass (annual bluegrass, Poa annua); test: Test D pre-/postemergence: bluegrass
Outline: as §1

[6] = system: cocklebur (common cocklebur, Xanthium strumarium); test: Test F pre-/postemergence: cocklebur; details: Preemergence
Outline: as §2

[7] = Postemergence, 31 g ai/ha, scale 0 to 100 (0 no effect, 100 complete control)
[8] = Postemergence, 62 g ai/ha, scale 0 to 100 (0 no effect, 100 complete control)
[9] = Postemergence, 125 g ai/ha, scale 0 to 100, 0 no effect, 100 complete control
[10] = Postemergence, 16 g ai/ha, scale 0 to 100
[11] = Preemergence, 16 g ai/ha, scale 0 to 100, 0 no effect, 100 complete control
[12] = Preemergence, 31 g ai/ha, scale 0 to 100, 0 no effect, 100 complete control
[13] = Preemergence, 62 g ai/ha, scale 0 to 100
[14] = Preemergence, 125 g ai/ha, scale 0 to 100
[15] = Preemergence, 250 g ai/ha, scale 0 to 100
[16] = 31 g ai/ha, scale 0 to 100, 0 no effect, 100 complete control
[17] = Postemergence, 250 g ai/ha, scale 0 to 100
[18] = Postemergence, 31 g ai/ha, scale 0 to 100
[19] = Postemergence, 62 g ai/ha, scale 0 to 100
[20] = Postemergence, 125 g ai/ha, scale 0 to 100
[21] = 16 g ai/ha, scale 0 to 100, 0 no effect, 100 complete control

In the case of `Cc1nn(-c2ccc(C(F)(F)F)c(F)c2)nc1Oc1ccnc(C(F)(F)F)c1` [Compound 148], the “Plant response rating: Blackgrass” value [1, 7] is reported as 15, the “Plant response rating: Blackgrass” value [1, 8] is reported as 30 and the “Plant response rating: Blackgrass” value [1, 9] is reported as 65. For the same compound, the “Plant response rating, Blackgrass” value [1, 10] was 10, the “Plant response rating, Blackgrass” value [1, 11] was 0 and the “Plant response rating, Blackgrass” value [1, 12] was 10. The “Plant response rating, Blackgrass” value [1, 13] was 5, the “Plant response rating, Blackgrass” value [1, 14] was 5 and the “Plant response rating: Ryegrass, Italian” value [2, 7] was 15. For the same compound, the “Plant response rating: Ryegrass, Italian” value [2, 8] was 20, the “Plant response rating: Ryegrass, Italian” value [2, 9] was 20 and the “Plant response rating, Ryegrass, Italian” value [2, 10] was 5. The “Plant response rating, Ryegrass, Italian” value [2, 11] was 0, the “Plant response rating, Ryegrass, Italian” value [2, 12] was 5 and the “Plant response rating, Ryegrass, Italian” value [2, 13] was 5. For the same compound, the “Plant response rating, Ryegrass, Italian” value [2, 14] was 35, the “Plant response rating, Ryegrass, Italian” value [3, 11] was 0 and the “Plant response rating, Ryegrass, Italian” value [3, 12] was 0. The “Plant response rating, Ryegrass, Italian” value [3, 14] was 95, the “Plant response rating, Ryegrass, Italian” value [3, 15] was 100 and the “Plant response rating: Mustard, Wild” value [4, 7] was 100. The “Plant response rating: Mustard, Wild” value [4, 8] was 100, the “Plant response rating: Mustard, Wild” value [4, 9] was 100 and the “Plant response rating, Mustard, Wild” value [4, 10] was 55. The “Plant response rating, Mustard, Wild” value [4, 11] was 20, the “Plant response rating, Mustard, Wild” value [4, 12] was 15 and the “Plant response rating, Mustard, Wild” value [4, 13] was 55. The “Plant response rating, Mustard, Wild” value [4, 14] was 95, the “Plant response rating: Bluegrass” value [5, 7] was 15 and the “Plant response rating: Bluegrass” value [5, 8] was 25. For the same compound, the “Plant response rating: Bluegrass” value [5, 9] was 70, the “Plant response rating, Bluegrass” value [5, 10] was 5 and the “Plant response rating, Bluegrass” value [5, 11] was 0. The “Plant response rating, Bluegrass” value [5, 12] was 15, the “Plant response rating, Bluegrass” value [5, 13] was 60 and the “Plant response rating, Bluegrass” value [5, 14] was 50. The “Plant response rating, Cocklebur” value [6, 16] was 0 and the “Plant response rating, Cocklebur” value ([6]; 125 g ai/ha, scale 0 to 100) was 0.

`CCc1nn(-c2ccc(C(F)(F)F)cc2)nc1Cc1ccnc(C(F)(F)F)c1` [Compound 155] was tested, and the “Plant response rating: Blackgrass” value [1, 7] was 50, the “Plant response rating: Blackgrass” value [1, 8] was 60 and the “Plant response rating: Blackgrass” value [1, 9] was 85. The “Plant response rating, Blackgrass” value [1, 10] was 5, the “Plant response rating, Blackgrass” value [1, 11] was 5 and the “Plant response rating, Blackgrass” value [1, 12] was 10. For the same compound, the “Plant response rating, Blackgrass” value [1, 13] was 20, the “Plant response rating, Blackgrass” value [1, 14] was 70 and the “Plant response rating: Ryegrass, Italian” value [2, 7] was 15. The “Plant response rating: Ryegrass, Italian” value [2, 8] was 25, the “Plant response rating: Ryegrass, Italian” value [2, 9] was 60 and the “Plant response rating, Ryegrass, Italian” value [2, 10] was 5. For the same compound, the “Plant response rating, Ryegrass, Italian” value [2, 11] was 0, the “Plant response rating, Ryegrass, Italian” value [2, 12] was 0 and the “Plant response rating, Ryegrass, Italian” value [2, 13] was 10. The “Plant response rating, Ryegrass, Italian” value [2, 14] was 65, the “Plant response rating, Ryegrass, Italian” value [3, 14] was 85 and the “Plant response rating, Ryegrass, Italian” value [3, 15] was 95. For the same compound, the “Plant response rating: Mustard, Wild” value [4, 7] was 100, the “Plant response rating: Mustard, Wild” value [4, 8] was 100 and the “Plant response rating: Mustard, Wild” value [4, 9] was 100. The “Plant response rating, Mustard, Wild” value [4, 10] was 80, the “Plant response rating, Mustard, Wild” value [4, 11] was 55 and the “Plant response rating, Mustard, Wild” value [4, 12] was 55. For the same compound, the “Plant response rating, Mustard, Wild” value [4, 13] was 100, the “Plant response rating, Mustard, Wild” value [4, 14] was 100 and the “Plant response rating: Bluegrass” value [5, 7] was 35. For the same compound, the “Plant response rating: Bluegrass” value [5, 8] was 75, the “Plant response rating: Bluegrass” value [5, 9] was 90 and the “Plant response rating, Bluegrass” value [5, 10] was 20. For the same compound, the “Plant response rating, Bluegrass” value [5, 11] was 15, the “Plant response rating, Bluegrass” value [5, 12] was 15 and the “Plant response rating, Bluegrass” value [5, 13] was 60. The “Plant response rating, Bluegrass” value [5, 14] was 85, the “Plant response rating, Cocklebur” value ([6]; 62 g ai/ha, scale 0 to 100) was 0 and the “Plant response rating, Cocklebur” value ([6]; 125 g ai/ha, scale 0 to 100) was 40. The “Plant response rating, Cocklebur” value ([6]; 250 g ai/ha, scale 0 to 100) was 40.

With `CCc1nn(-c2ccc(C(F)(F)F)cc2)nc1Oc1ccnc(C(F)(F)F)c1` [Compound 169] the “Plant response rating, Ryegrass, Italian” value [3, 17] was 30, the “Plant response rating, Ryegrass, Italian” value [3, 10] was 0 and the “Plant response rating, Ryegrass, Italian” value [3, 18] was 0. For the same compound, the “Plant response rating, Ryegrass, Italian” value [3, 19] was 20, the “Plant response rating, Ryegrass, Italian” value [3, 20] was 20 and the “Plant response rating, Ryegrass, Italian” value [3, 11] was 0. For the same compound, the “Plant response rating, Ryegrass, Italian” value [3, 12] was 0, the “Plant response rating, Ryegrass, Italian” value [3, 14] was 100 and the “Plant response rating, Ryegrass, Italian” value [3, 15] was 100. The “Plant response rating, Cocklebur” value [6, 21] was 0, the “Plant response rating, Cocklebur” value [6, 16] was 0 and the “Plant response rating, Cocklebur” value ([6]; 62 g ai/ha, scale 0 to 100) was 0.

In the case of `CCc1nn(-c2ccc(F)c(F)c2)nc1Oc1ccnc(C(F)(F)F)c1` [Compound 171], the “Plant response rating, Ryegrass, Italian” value [3, 11] is reported as 0, the “Plant response rating, Ryegrass, Italian” value [3, 12] is reported as 0 and the “Plant response rating, Ryegrass, Italian” value [3, 14] is reported as 25. For the same compound, the “Plant response rating, Ryegrass, Italian” value [3, 15] was 50, the “Plant response rating, Cocklebur” value [6, 21] was 0 and the “Plant response rating, Cocklebur” value [6, 16] was 0. For the same compound, the “Plant response rating, Cocklebur” value ([6]; 62 g ai/ha, scale 0 to 100) was 0.

In the case of `CCCc1nn(-c2ccc(F)c(F)c2)nc1Oc1ccnc(C(F)(F)F)c1` [Compound 172], the “Plant response rating, Ryegrass, Italian” value [3, 17] is reported as 50, the “Plant response rating, Ryegrass, Italian” value [3, 18] is reported as 20 and the “Plant response rating, Ryegrass, Italian” value [3, 20] is reported as 40. The “Plant response rating, Ryegrass, Italian” value [3, 12] was 35, the “Plant response rating, Ryegrass, Italian” value [3, 14] was 100 and the “Plant response rating, Ryegrass, Italian” value [3, 15] was 100. For the same compound, the “Plant response rating, Cocklebur” value ([6]; 250 g ai/ha, scale 0 to 100) was 5.

`CCOc1nn(-c2ccc(F)cc2)nc1Cc1ccnc(C(F)(F)F)c1` [Compound 196, 4-[[5-ethoxy-2-(4-fluorophenyl)-2H-1,2,3-triazol-4-yl]methyl]-2-(trifluoromethyl)pyridine] was tested, and the “Plant response rating: Blackgrass” value [1, 7] was 65, the “Plant response rating: Blackgrass” value [1, 8] was 85 and the “Plant response rating: Blackgrass” value [1, 9] was 80. The “Plant response rating, Blackgrass” value [1, 10] was 15, the “Plant response rating, Blackgrass” value [1, 11] was 10 and the “Plant response rating, Blackgrass” value [1, 12] was 20. The “Plant response rating, Blackgrass” value [1, 13] was 100, the “Plant response rating, Blackgrass” value [1, 14] was 100 and the “Plant response rating: Ryegrass, Italian” value [2, 7] was 15. For the same compound, the “Plant response rating: Ryegrass, Italian” value [2, 8] was 30, the “Plant response rating: Ryegrass, Italian” value [2, 9] was 75 and the “Plant response rating, Ryegrass, Italian” value [2, 10] was 5. The “Plant response rating, Ryegrass, Italian” value [2, 11] was 5, the “Plant response rating, Ryegrass, Italian” value [2, 12] was 10 and the “Plant response rating, Ryegrass, Italian” value [2, 13] was 60. For the same compound, the “Plant response rating, Ryegrass, Italian” value [2, 14] was 100, the “Plant response rating, Ryegrass, Italian” value ([3]; Postemergence, 8 g ai/ha, scale 0 to 100) was 15 and the “Plant response rating, Ryegrass, Italian” value [3, 10] was 20. For the same compound, the “Plant response rating, Ryegrass, Italian” value [3, 18] was 40, the “Plant response rating, Ryegrass, Italian” value [3, 19] was 70 and the “Plant response rating, Ryegrass, Italian” value [3, 20] was 80. For the same compound, the “Plant response rating, Ryegrass, Italian” value ([3]; Preemergence, 8 g ai/ha, scale 0 to 100, 0 no effect, 100 complete control) was 0, the “Plant response rating, Ryegrass, Italian” value [3, 11] was 40 and the “Plant response rating, Ryegrass, Italian” value [3, 12] was 75. For the same compound, the “Plant response rating, Ryegrass, Italian” value [3, 14] was 100, the “Plant response rating: Mustard, Wild” value [4, 7] was 100 and the “Plant response rating: Mustard, Wild” value [4, 8] was 100. For the same compound, the “Plant response rating: Mustard, Wild” value [4, 9] was 100, the “Plant response rating, Mustard, Wild” value [4, 10] was 100 and the “Plant response rating, Mustard, Wild” value [4, 11] was 35. The “Plant response rating, Mustard, Wild” value [4, 12] was 95, the “Plant response rating, Mustard, Wild” value [4, 13] was 100 and the “Plant response rating, Mustard, Wild” value [4, 14] was 100. For the same compound, the “Plant response rating: Bluegrass” value [5, 7] was 70, the “Plant response rating: Bluegrass” value [5, 8] was 75 and the “Plant response rating: Bluegrass” value [5, 9] was 80. The “Plant response rating, Bluegrass” value [5, 10] was 60, the “Plant response rating, Bluegrass” value [5, 11] was 5 and the “Plant response rating, Bluegrass” value [5, 12] was 35. The “Plant response rating, Bluegrass” value [5, 13] was 75, the “Plant response rating, Bluegrass” value [5, 14] was 100 and the “Plant response rating, Cocklebur” value [6, 16] was 0. The “Plant response rating, Cocklebur” value ([6]; 62 g ai/ha, scale 0 to 100) was 0 and the “Plant response rating, Cocklebur” value ([6]; 125 g ai/ha, scale 0 to 100) was 0.
